Measured values reported in PMC10931745 (International Journal of Molecular Sciences, 2024).

Assays:
MCF-7 = assay: MTT cell viability assay; assay type: cell-based, human
Experimental: (§1) The cell lines used were purchased from American Type Culture Collection (ATCC, Manassas, VA, USA). Human breast cancer cells MCF-7 and MDA-MB-231, human mammary epithelial cell line MCF-10A, and mouse BALB/3T3 embryonic fibroblasts were cultured as already described by some of us. The murine macrophage cell line RAW 264.7 was maintained in Dulbecco’s Modified Eagle’s Medium (DMEM) high glucose (4.5 g/L) supplemented with 10% Fetal Bovine Serum (FBS), 1% L-glutamine, and 100 units/mL of penicillin/streptomycin. The cell cultures were maintained at the temperature of 37 °C in a humidified atmosphere containing 5% CO2.
(§2) The 3-(4,5-dimethylthiazol-2-yl)-2,5-diphenyl-2H-tetrazolium bromide (MTT) assay (Sigma Aldrich (St. Louis, MO, USA)) was carried out to study the in vitro anticancer activities of the complexes, following the previously reported protocol. The cells were incubated for 72 h with different concentrations of the tested compounds (0.1, 1, 10, 25, 50, 100, and 500 µM) and the IC50 values were calculated from the percent (%) of control using the software GraphPad Prism 9 (GraphPad Software, La Jolla, CA, USA).

MDA-MB-231 = assay: MTT cell viability assay; assay type: cell-based, human
Experimental: as §1, §2

[1] = system: human mammary epithelial cell line MCF-10A; assay: MTT assay, toxicity towards normal cells; assay type: cell-based; conditions: 72 h
Experimental: as §1, §2

[2] = system: NO production in LPS-stimulated RAW 264.7 macrophages; assay: Griess assay, NO production; assay type: cell-based, murine; conditions: 25 µM, LPS 1 µg/mL, 24 h
Experimental: The Griess assay was performed using RAW 264.7 murine macrophages to study the anti-inflammatory activity in terms of NO production. RAW 264.7 cells were plated in the 48 multi-wells and, after 24 h, treated with the tested molecules (25 µM) and the lipopolysaccharide (LPS, Sigma Aldrich, Milan, Italy) at a final concentration of 1 µg/mL. LPS is able to induce inflammation by stimulating NO production in immune system cells such as macrophages. After 24 h, the cell medium Griess reagent (Sigma Aldrich, Milan, Italy) was mixed in with a ratio of 1:1. The Griess reagent allowed for the quantification of NO released by macrophages in the treatment medium. The mixture was left for 30 min under agitation and, subsequently, the absorbance at 540 nm was measured using a multiplate reader. The obtained absorbance allowed us to calculate the NO production % compared to the absorbance obtained for the positive control, in which the cells were treated with LPS.

[3] = ABTS radical scavenging assay; assay type: biochemical
Experimental: The radical scavenging properties of the complexes on a 2,20-azino-bis(3-ethylbenzothiazoline-6-sulfonate) radical cation (ABTS^+) were evaluated as previously described.
All the complexes were used at different concentrations (5, 10, 25, 50, and 100 µg/mL) and the ABTS radical scavenging activity, measured at 730 nm using a microplate reader, was expressed as inhibition percentages (%IABTS) compared tothe control, according to the following expression:(3) IABTS (%)=ABSCTRL−ABSsample/ABSCTRL∗100 where ABSCTRL and ABSsample are the absorbance at 730 nm in the control and in the presence of samples, respectively.
IC50 values were calculated from the %IABTS using GraphPad Prism 9 software (GraphPad Inc., San Diego, CA, USA). Trolox was employed as a positive control, while caffeine and theophylline were reference compounds.

[4] = DPPH radical scavenging assay; assay type: biochemical
Experimental: The radical scavenging properties of the complexes on the 1,1-diphenyl-2-picrylhydrazil (DPPH) radical were evaluated as previously described.
All the complexes were used at different concentrations (10, 25, 50, 100, and 200 µg/mL) and the DPPH radical scavenging activity, measured at 517 nm using a microplate reader, was expressed as inhibition percentages (%IDPPH) compared to the initial concentration of DPPH (control) according to the following expression:(2) IDPPH (%)=ABSCTRL−ABSsample/ABSCTRL∗100 where ABSCTRL and ABSsample are the absorbance at 517 nm in the control and in the presence of samples, respectively.
The obtained IDPPH percentages allowed us to calculate the IC50 values using Graph-Pad Prism 9 software (GraphPad Inc., San Diego, CA, USA). Trolox was employed as a positive control, while caffeine and theophylline were reference compounds.

[5] = system: Escherichia coli (ATCC 25922); assay: MIC/MBC broth dilution; assay type: cell-based
Experimental: (§3) The bacterial strains used for MIC and MBC value determinations expressed as µg/mL by the broth dilution method, according to CLSI guidelines, were the following:
(§4) -4 Gram-negative: Escherichia coli (ATCC® 25922^TM) and Klebsiella pneumoniae (ATCC® 13883^TM);
(§5) Increasing concentrations of the complexes (50, 70, 100, 150, and 200 µg/mL) were incubated with bacteria plated in 96-well microplates at 37 °C overnight as already reported, and then bacterial growth was checked at a wavelength of 600 nm using a Multiskan spectrophotometer (model Multiskan Ex Microplate; Thermo Scientific, Nyon, Switzerland). MIC or MBC values were obtained by comparing cell density with a positive control (bacterial cells grown in LB medium were added with only the vehicle, DMSO). The results were representative of three independent experiments performed in triplicate. Ampicillin, Gentamicin, and Cephalosporin (Sigma Aldrich A9393) were used as the control for strain sensitivity.

[6] = system: Klebsiella pneumoniae (ATCC 13883); assay: MIC/MBC broth dilution; assay type: cell-based
Experimental: as §3, §4, §5

[7] = system: Enterococcus faecalis (ATCC 19433); assay: MIC/MBC broth dilution; assay type: cell-based
Experimental: as §3
(§6) -3 Gram-positive: Enterococcus faecalis (ATCC® 19433^TM), Staphylococcus aureus (ATCC® 23235^TM), and Staphylococcus epidermidis (ATCC® 14990™).
as §5

[8] = system: Staphylococcus aureus (ATCC 23235); assay: MIC/MBC broth dilution; assay type: cell-based
Experimental: as §3, §6, §5

[9] = system: Staphylococcus epidermidis (ATCC 14990); assay: MIC/MBC broth dilution; assay type: cell-based
Experimental: as §3, §6, §5

[10] = system: Pseudomonas aeruginosa (ATCC 15442); assay: MIC/MBC broth dilution; assay type: cell-based
Experimental: as §3
as §5, with “The results were representative of three independent experiments performed in triplicate.” left out

[11] = system: Salmonella typhimurium (ATCC 14028); assay: MIC/MBC broth dilution; assay type: cell-based
Experimental: as §3
as §5, with “The results were representative of three independent experiments performed in triplicate.” left out

[12] = target: T1, human topoisomerase I (hTopoI) (Homo sapiens, UniProt P11387); assay: Human topoisomerase I relaxation assay; assay type: biochemical; conditions: 50 µM, supercoiled pHOT1 DNA
T1 construct: purchased TopoGEN, Port Orange, FL, USA
T1 sequence (P11387 1-765): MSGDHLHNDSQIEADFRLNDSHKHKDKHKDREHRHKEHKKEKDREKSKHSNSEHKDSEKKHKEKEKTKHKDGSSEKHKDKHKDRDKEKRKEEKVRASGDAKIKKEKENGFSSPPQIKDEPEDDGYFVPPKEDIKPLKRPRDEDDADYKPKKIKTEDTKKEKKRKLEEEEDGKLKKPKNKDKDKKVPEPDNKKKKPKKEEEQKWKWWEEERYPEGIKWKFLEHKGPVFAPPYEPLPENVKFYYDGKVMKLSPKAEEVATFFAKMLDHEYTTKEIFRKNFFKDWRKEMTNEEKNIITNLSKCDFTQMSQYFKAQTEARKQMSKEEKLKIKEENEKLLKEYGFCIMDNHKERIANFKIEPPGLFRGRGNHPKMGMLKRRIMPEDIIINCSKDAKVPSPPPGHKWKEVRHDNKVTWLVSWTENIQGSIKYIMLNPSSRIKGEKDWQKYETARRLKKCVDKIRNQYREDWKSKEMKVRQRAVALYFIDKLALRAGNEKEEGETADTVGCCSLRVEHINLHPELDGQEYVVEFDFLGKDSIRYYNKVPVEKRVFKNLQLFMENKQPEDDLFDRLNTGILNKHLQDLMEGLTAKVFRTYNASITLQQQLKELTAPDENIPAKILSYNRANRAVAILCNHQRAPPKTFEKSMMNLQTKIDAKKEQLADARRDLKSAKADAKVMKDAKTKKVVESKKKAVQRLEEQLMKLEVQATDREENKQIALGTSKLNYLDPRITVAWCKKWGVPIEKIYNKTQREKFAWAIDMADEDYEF
Experimental: The human topoisomerase I relaxation assay was performed as reported in [86]. Shortly, the recombinant human topo I (TopoGEN, Port Orange, FL, USA) was incubated with the super-coiled pHOT1, in the presence or not of the tested compounds, at the indicated concentrations. The reaction products were then allowed to separate through the agarose gel electrophoresis, and ethidium bromide-stained DNA was visualized under UV light.

Cn1c(=O)c2c(n(C)[c]([Au-][I])[n+]2C2CCCCC2O)n(C)c1=O (stereo not shown) [AuL2, 1,3,7-Trimethylxanthin-9-[cyclohexan-2-ol-8-ylidene]Au(I) Iodide]
IC50 (MCF-7; 72 h): > 100 µM | IC50 (MDA-MB-231; 72 h): > 100 µM | IC50 [1]: > 100 µM | Reduction in NO production [2]: ~12.64% | IC50 [3]: 155.5 ± 1 µM | IC50 [4]: > 500 µM | M.B.C. E. coli [5]: > 200 µg/mL | M.I.C. E. coli [5]: 150 µg/mL | M.B.C. K. pneumoniae [6]: > 200 µg/mL | M.I.C. K. pneumoniae [6]: 150 µg/mL | M.B.C. E. faecalis [7]: > 200 µg/mL | M.I.C. E. faecalis [7]: 150 µg/mL | M.B.C. S. aureus [8]: > 200 µg/mL | M.I.C. S. aureus [8]: 150 µg/mL | M.B.C. S. epidermidis [9]: > 125 µg/mL | M.I.C. S. epidermidis [9]: 100 µg/mL | M.B.C. P. aeruginosa [10]: > 125 µg/mL | M.I.C. P. aeruginosa [10]: 100 µg/mL | M.B.C. S. typhimurium [11]: > 200 µg/mL | M.I.C. S. typhimurium [11]: 150 µg/mL

N.N.[Cl][Pt][Cl] [Cisplatin, reference compound]
IC50 (MCF-7; 72 h): 26.2 ± 1.1 µM | IC50 (MDA-MB-231; 72 h): 32.2 ± 1 µM | IC50 [1]: 78.2 ± 1.2 µM | Inhibition of hTopo I supercoil relaxing activity [12]: inhibited the hTopoI activity

Cn1c(=O)c2c(n(C)c1=O)[n+](C)cn2CC(O)c1ccccc1 (stereo not shown) [P-L1, 9-[(2-Hydroxy-2-phenyl)ethyl]-1,3,7-trimethylxanthinium Iodide]
IC50 (MCF-7; Homo sapiens, MCF7, 72 h): > 100 µM | IC50 (MDA-MB-231; Homo sapiens, MDA-MB-231, 72 h): > 100 µM | IC50 ([1]; Homo sapiens, MCF-10A): > 100 µM

Cn1c(=O)c2c(n(C)c1=O)[n+](C)cn2C1CCCCC1O (stereo not shown) [P-L2, 9-[Cyclohexan-2-ol]-1,3,7-trimethylxantinium Iodide]
IC50 (MCF-7; Homo sapiens, MCF7, 72 h): > 100 µM | IC50 (MDA-MB-231; Homo sapiens, MDA-MB-231, 72 h): > 100 µM | IC50 ([1]; Homo sapiens, MCF-10A): > 100 µM

Cn1c(=O)c2c(n(C)c1=O)[n+](C)cn2CCO [P-L3]
IC50 (MCF-7; Homo sapiens, MCF7, 72 h): > 100 µM | IC50 (MDA-MB-231; Homo sapiens, MDA-MB-231, 72 h): > 100 µM | IC50 ([1]; Homo sapiens, MCF-10A): > 100 µM

Cn1c(=O)c2[nH]cnc2n(C)c1=O [Theophylline, reference compound]
IC50 (MCF-7; Homo sapiens, MCF7, 72 h): > 500 µM | IC50 (MDA-MB-231; Homo sapiens, MDA-MB-231, 72 h): > 500 µM | IC50 ([1]; Homo sapiens, MCF-10A): > 500 µM | IC50 [3]: > 500 µM | IC50 ABTS scavenging [3]: did not show any scavenging capacity | IC50 [4]: > 500 µM | IC50 DPPH scavenging [4]: did not show any scavenging capacity | M.I.C. E. coli [5]: >200 µg/mL | MIC ([5]; Escherichia coli, ATCC25922): > 200 µg/mL | M.I.C. K. pneumoniae [6]: >200 µg/mL | MIC ([6]; Klebsiella pneumoniae, ATCC13883, read-out: M.I.C. K. pneumoniae): > 200 µg/mL | M.I.C. E. faecalis [7]: >200 µg/mL | MIC ([7]; Enterococcus faecalis, ATCC19433, read-out: M.I.C. E. faecalis): > 200 µg/mL | M.I.C. S. aureus [8]: >200 µg/mL | MIC ([8]; Staphylococcus aureus, ATCC23235, read-out: M.I.C. S. aureus): > 200 µg/mL | M.I.C. S. epidermidis [9]: >200 µg/mL | MIC ([9]; Staphylococcus epidermidis, ATCC14990, read-out: M.I.C. S. epidermidis): > 200 µg/mL

Cc1c(C)c2c(c(C)c1O)CCC(C)(C(=O)O)O2 (stereo not shown) [Trolox, reference compound]
IC50 [3]: 54.5 ± 0.9 µM | IC50 [4]: 47 ± 1.2 µM
